We go through 81 compounds from the METLIN SMRT retention time set (Domingo-Almenara et al. 2019).

A short description of this series: gradient 5% acetonitrile 3 min, to 50% in 2 min, to 85% in 15 min, held 3 min, 100 µL/min. The following applies: column: Zorbax Extend-C18 2.1 x 50 mm; eluents: water / acetonitrile, 0.1% formic acid. Summed up: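 In both positive and negative ionization mode, a quadrupole time-of-flight mass spectrometer coupled to HPLC analyzed pure standards run in mixtures of ~100 molecules. The Zorbax Extend-C18 column (2.1 × 50 mm, 1.8 μm) was operated at 100 μL/min with water and acetonitrile, each containing 0.1% formic acid. The dead volume was 40 μL and the dwell volume 900 μL. Retention time came from adduct peaks that were computationally picked and individually inspected by hand.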
In the case of `CCc1ccc(Nc2nc(C(=O)NC3CCCCC3)nc3ccccc23)cc1`, the RP-LC retention time is 995 s. Next, `O=C(c1ccc(Cl)cc1Cl)N1CCN(c2cc(-c3cccs3)[nH]n2)CC1`: 888 s; `Cc1nnc([C@@H]2CC(F)(F)CN2C(=O)c2ccc3ncccc3c2)o1`: 607 s. Consider `CCOc1ccc(S(=O)(=O)N2CCC(C(=O)Nc3ccc(F)c(Cl)c3)CC2)cc1`, for which the RP-LC retention time is 1030 s. Next, `CCC(c1cccs1)N1C(=O)[C@H]2CN(Cc3cccnc3)C[C@H]2C1=O` (stereo partly specified): 653 s; `CCn1ccc(NC(=O)c2ccccc2)n1`: 694 s. Compound `O=C(Nc1ccc(F)cc1F)C1CC(=O)N(CCc2c[nH]c3ccc(F)cc23)C1` (stereo unspecified) came in with an RP-LC retention time of 784 s. Take `CCC(Oc1ccc(=O)n(-c2ccc(F)cc2)n1)C(=O)Nc1ccc(C(C)=O)cc1` (stereo unspecified): the RP-LC retention time stood at 764 s. `O=C(O)c1nnn(-c2cccc(F)c2)c1-c1cccnc1`: the RP-LC retention time is 614 s. Next, `O=C(CN1CCN(Cc2ccccc2F)C1=O)NCc1ccccc1Br`: 853 s. Next, `CNC(=O)c1cn2ccnc(-c3ccc(C)cc3)c2n1`: 755 s; `Cc1cn(C)c(CC(=O)NCCN2CCCCC2)c1C(=O)O`: 578 s. Take `CSc1cccc(NC(=O)N(C)Cc2nc3cc(C(=O)N(C)C)ccc3n2C)c1`: the RP-LC retention time was 626 s. In turn, `CCC(=O)N1CCC(N2C(=O)C(O)C23CCCCC3)CC1` (stereo unspecified) registered an RP-LC retention time of 590 s. As for `O=C(Cn1c(-c2ccccc2F)nc2ccccc21)N1CCOCC1`, the figure is 600 s. As for `Cc1ccc(NC(=O)N2CCCC(C)(C(=O)NCc3ccccc3)C2)c(Cl)c1` (stereo unspecified), the figure is 993 s; as for `COc1ccc(C(=O)Nc2ccc3nc(N4CCN(C5CCCCC5)CC4)cc(C(=O)O)c3c2)cc1`, 614 s; as for `COc1ncc(C(=O)NCCc2ccc(Cl)cc2)cn1`, 788 s. Next, `COCC(=O)Nc1ccc(-c2nc3cccnc3s2)cc1C`: 729 s; `COc1cc(=O)c(C(N)=O)nn1-c1ccc(C)cc1`: 612 s. In the case of `COc1cccc(-c2noc(CN3C(=O)COc4ccccc43)n2)c1OC`, the RP-LC retention time came to 908 s.

`O=C(CCS(=O)(=O)c1ccccc1)Nc1nc(-c2cc(Cl)sc2Cl)cs1`: the RP-LC retention time turned out to be 1060 s. With `Cc1ccoc1C(=O)N1CC(F)(F)C[C@H]1c1nc(C2CC2)no1`, the RP-LC retention time amounted to 723 s.

Regarding `CC1CCC2(CC1)NC(=O)N(CC(=O)Nc1ccc3c(c1)OCO3)C2=O` (stereo unspecified), the RP-LC retention time was found to be 708 s. On to `COc1ccc(NC(=O)c2cnc(N3CCN(c4ccccc4OC)CC3)nc2N)cc1`, for which the RP-LC retention time stood at 737 s.

For `CCOC(=O)c1nnc2c(-c3ccc(F)cc3)c(C)nn2c1C`, the RP-LC retention time stood at 986 s.

Regarding `Cc1ccc(-c2noc(-c3cccc(S(=O)(=O)N4CCCCC4)c3)n2)cc1`, the RP-LC retention time is 1340 s. As for `Cc1ccc(CNC(=O)c2cc3c(n(-c4ccc(C(F)(F)F)cc4)c2=O)CCCC3=O)o1`, the figure is 634 s; as for `CCN1c2ccc(C)cc2C(=O)NC12CCN(C(=O)c1cc(F)cc(F)c1)CC2`, 858 s; as for `CCCN(C(C)=O)c1nc(-c2cccc(Br)c2)cs1`, 1260 s.

The compound `O=C(Nc1nc2c(s1)CCCC2C(=O)NCc1ccco1)c1ccc2c(c1)OCO2` (stereo unspecified) returned an RP-LC retention time of 789 s. As for `O=C(NC1CC1)c1ccc(-n2cccn2)nc1`, the figure is 653 s; as for `COCCCNC(=O)C1CCCN(c2cnc3nc(C)c(C)nc3c2)C1` (stereo unspecified), 619 s. As for `Cc1cc(N2CCOCC2)nc(N2CCN(C(=O)c3ccc(Br)cc3)CC2)n1`, the figure is 660 s. As for `CCc1noc(NC(C)=O)c1-c1ccc(C)c(S(=O)(=O)Nc2ccc(C(=O)OC)cc2)c1`, the figure is 736 s; as for `CC(=O)c1ccc(NC(=O)c2cn(C)nc2C)cc1`, 630 s. Regarding `Cc1nnc2ccc(NC(=O)Nc3ccccc3F)cn12`, the RP-LC retention time was determined as 658 s.

`COCCNC(=O)C1c2cc(OC)c(OC)cc2C(=O)N(C)C1c1ccc(OC)cc1` (stereo unspecified) came in with an RP-LC retention time of 661 s.

In turn, `Cc1ccccc1NC(=O)Cn1nc2cc(-c3ccccc3)nc(C)n2c1=O` showed an RP-LC retention time of 907 s. Next, `O=C(c1ccc2cc[nH]c2c1)N1CCC2(CC1)N=C(c1ccccc1)NO2`: 770 s. As for `Cc1c(S(=O)(=O)N2CCCC(C)C2)c(C)n(C)c1C(=O)Nc1cccc(F)c1` (stereo unspecified), the figure is 1100 s; as for `Cc1c(C(=O)N2CCN(c3ccccn3)CC2)sc2nc3n(c(=O)c12)CCC3`, 571 s; as for `COC(=O)COc1cc(-c2cccc(Cl)c2)nc2ccc(NC(=O)C3CC3)cc12`, 823 s. As for `COc1ccc(-c2csc3ncnc(NCCN4CCOCC4)c23)cc1`, the figure is 569 s; as for `COC(=O)c1c(C)[nH]c(C(=O)N2CCCC(C(=O)NCc3cccc(Cl)c3)C2)c1C` (stereo unspecified), 798 s; as for `COc1ccc(-c2cc3c(=O)n(Cc4nc(-c5ccc(OC)cc5OC)oc4C)ccn3n2)cc1`, 1020 s.

Compound `CC1(C(=O)NCc2ccc(F)cc2)Cn2cnc(C(=O)N3CCOCC3)c2C(=O)N1C1CC1` (stereo unspecified) showed an RP-LC retention time of 616 s.

Regarding `CCCn1cc(S(=O)(=O)Nc2ccc(F)cc2)c2cccnc21`, the RP-LC retention time is 858 s.

As to `CCCNC(=O)CCc1nc2ccccc2n(CC(=O)NC(C)CC)c1=O` (stereo unspecified), the RP-LC retention time is 688 s. As for `CCCNC(=O)CCc1nc2ccccc2n(CC(=O)NCc2ccc(F)cc2)c1=O`, the figure is 750 s; as for `O=[N+]([O-])c1ccc(CSc2nnc(-c3cccc(S(=O)(=O)N4CCCC4)c3)o2)cc1`, 937 s; as for `CCOc1ccccc1C(=O)NC1CCN(c2cc(-c3ccc(Cl)cc3)[nH]n2)C1` (stereo unspecified), 879 s.

`O=C1CCCCC1Oc1cc(O)c2c(=O)cc(-c3ccccc3)oc2c1` (stereo unspecified) yielded an RP-LC retention time of 1090 s. As for `CN(C)S(=O)(=O)c1ccc(-c2nnc(C(=O)NCc3ccccc3F)o2)cc1`, the figure is 840 s; as for `CCc1ccc(NC(=O)Cn2cnc3nc(N4CCCC(C(=O)NC)C4)sc3c2=O)cc1` (stereo unspecified), 694 s. As for `Cc1nn(CC(=O)N2CCN(c3ccccn3)CC2)c(=O)c2cccn12`, the figure is 568 s; as for `Cc1ccc(C(=O)N2CCC(COc3ccc(C(=O)NC4CC4)cc3)CC2)cc1C`, 887 s. Next, `Cc1ccc(NC(=O)NC2CCN(c3ccc(F)c(C)c3)C2=O)cc1C` (stereo unspecified): 899 s; `CC(C)N1C(=O)C(C)N(C(=O)NC2CCCC2)c2cccnc21` (stereo unspecified): 924 s; `CC(C)N(CCCNC(=O)Cn1cc2c(n1)CCCCC2)Cc1ccccc1`: 674 s. In turn, `COCCOC(=O)C1=C(C)NC(=O)NC1c1cn(-c2ccccc2)nc1-c1cccs1` (stereo unspecified) registered an RP-LC retention time of 742 s. As for `CC(=O)NCc1csc(C2CCN(C(=O)COc3ccc(F)cc3)CC2)n1`, the figure is 662 s; as for `CNC(=O)N1CC(C)Oc2ccc(C)cc21` (stereo unspecified), 765 s.

As for `COc1ccc(NC(=O)Cc2csc(NC(=O)C3CC3)n2)cc1C`, the RP-LC retention time came to 706 s. Next, `Cn1c(=O)n(CC(=O)Nc2ccccc2Cl)c(=O)c2cnc(-c3ccccc3)nc21`: 1020 s.

`COCCNC(=O)C(=O)Nc1ccc(Br)cc1F` returned an RP-LC retention time of 839 s.

Take `CCCNC(=O)COc1ccc(NC(=O)C2CC2)cn1`: the RP-LC retention time came out at 643 s. `Cc1ccc(C)c(NC(=O)Cn2cnc3nc4c(cc3c2=O)CCCC4)c1` showed an RP-LC retention time of 705 s. `CCOC(=O)c1noc2ncnc(N(Cc3ccccc3)C(C)C)c12` yielded an RP-LC retention time of 1080 s. Next, `Cc1cc2nc(C(=O)NC3CC3)c(=O)n(C)c2cc1C`: 714 s; `O=C1C[C@@H](c2ccc(O)c(O)c2)Oc2cc(O[C@H]3O[C@@H](CO)[C@H](O)[C@@H](O)[C@@H]3O)cc(O)c21`: 723 s. As for `CCn1ncc(NC(=O)COc2ccccc2C)c(N2CCOCC2)c1=O`, the figure is 889 s; as for `O=C(Nc1cccc(Cl)c1)Nc1ccc2nc3n(c(=O)c2c1)CCC3`, 736 s; as for `Cc1ccc(Nc2c(-c3ccc(N4CCOCC4)cc3)nc3c(C)cccn23)cc1`, 739 s. Next, `CCc1ccc(-c2csc(NC(=O)C3CCCO3)n2)cc1` (stereo unspecified): 1020 s; `CS(=O)(=O)N1CC(C(=O)Nc2ccccc2)C2(CCCCC2)C1` (stereo unspecified): 875 s; `CCOC(=O)c1cn(CC(=O)NC2CCCC2)c2nc(C)ccc2c1=O`: 686 s. As to `Cc1noc(C)c1C(=O)N1CCCC1c1ccc(Cl)cc1` (stereo unspecified), the RP-LC retention time was 855 s. With `CC1=C(c2ccccc2)S(=O)(=O)N=C1N1CCCN(C(=O)CC2CCCC2)CC1`, the RP-LC retention time amounted to 861 s.

For the compound `CCN(CC)C(=O)c1ccc2nc(-c3ccc(C)c(C)c3)cn2c1`, the RP-LC retention time was found to be 669 s. As for `CCc1ccc(N2C(=O)CN(S(C)(=O)=O)CC2(C)C(=O)NC2CCCCCCC2)cc1` (stereo unspecified), the figure is 1000 s.
